One test relates to S. Typhimurium ATCC14028. Put plainly: Static peg assay for prevention of biofilm formation (Calgary device, crystal violet). Format: cell-based, Salmonella Typhimurium. The following applies: 25° C. A digest of the protocol:
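Calgary 96-peg device, ca. 10^6 cells of ATCC14028 per well in TSB 1/20 for 24 h at 25° C (or 48 h at 16° C, medium and compound renewed at 24 h), or in CFA broth for 24 h at 37° C, static, with two-fold compound dilutions. Crystal violet stain, acetic acid extraction, OD570. IC50 from 2–3 independent experiments.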

Test [1] has as its system Pseudomonas aeruginosa PA14. The test is described as follows: Bioscreen assay: influence on planktonic growth curve. It counts as cell-based. On the set-up: key: x: no influence on the planktonic growth at the IC50 for biofilm inhibition; ∘: planktonic growth is retarded at the IC50 for biofilm inhibition. Particulars: planktonic growth at the IC50 for biofilm inhibition, 25° C. From the text: Some of the tested compounds show a concentration range in which biofilm formation is inhibited but no effect on planktonic growth is observed. These compounds are particularly interesting for prevention of biofilm formation since the development of resistance against these compounds is less likely. Table 8 indicates whether the different compounds have an effect on the planktonic growth of the bacteria at the IC50 for biofilm inhibition. To construct Table 8, the effect of the tested compounds on the growth curve of the bacteria was determined at a concentration equal to the IC50 for biofilm inhibition, by using the Bioscreen system available from Oy Growth Curves Ab Ltd). The Bioscreen device from Oy Growth Curves Ab Ltd was used for measuring the influence of the chemical compounds on the planktonic growth of Salmonella Typhimurium and Pseudomonas aeruginosa. The Bioscreen is a computer controlled incubator/reader/shaker that uses 10×10 well microtiter plates and measures light absorbance of each well at a specified wave length in function of time. An overnight culture of S. […] The broth used was TSB 1/20 for the experiments at 16° C. and 25° C. For experiments at 37° C. CFA medium was used for S. […] As a control 3 μl of the appropriate solvent (DMSO or EtOH) was also added to the plate in 3- or 4-fold. The microtiter plate was incubated in the Bioscreen device at 16° C., 25° C. or 37° C. for at least 36 hours, with continious medium shaking. The absorbance of each well was measured at 600 nm each 15 minutes. Excel was used to generate the growth curves for treated the treated wells and the untreated control wells. Some of the compounds show a concentration range in which biofilm formation is inhibited but no effect on the planktonic growth is observed. […] To construct this table the effect of the compounds on the growth curve of the bacteria was determined at a concentration equal to the IC50 for biofilm inhibtion, by using the Bioscreen system from Oy Growth Curves Ab Ltd.

Where [2] appears, read: Table 11, read-out: IC50 (biofilm formation).
The mark [3] stands for this setting: Table 14, read-out: IC50 biofilm inhibition.
[4] abbreviates: Table 18, read-out: S. Typhimurium IC50 (biofilm formation).

Values joined by “and” are separate entries in the source; they are usually repeats but may differ in a detail not shown here. Identical values can stand only once. Like-named read-outs stand apart in the source and are kept apart here. Bounds are passed on as bounds.

In the case of `O=[N+]([O-])c1ccc(C2(O)C[n+]3cccnc3N2C2CCCCCCCCCCC2)cc1.[Br-]` (stereo not shown) [Compound 69], the IC50 in the test on S. Typhimurium ATCC14028 (setting [2]) was under 6.25 µM; in the test on S. Typhimurium ATCC14028 (setting [3]), under 6.25 µM; with S. Typhimurium ATCC14028 (setting [4]), under 6.3 µM.
With `OC1(c2ccc(-c3ccccc3)cc2)C[n+]2cccnc2N1C1CCCC1.[Br-]` (stereo not shown) [R1=Cyclopentyl, R3=4-biphenylyl, R4=H, 1-cyclopentyl-2-hydroxy-2-(4-biphenylyl)-2,3-dihydro-1H-imidazo[1,2-a]pyrimidin-4-ium bromide], the concentration for half-maximal inhibition (IC50) turned out to be 14.9 µM in the test with S. Typhimurium ATCC14028 (Salmonella enterica, Table 11, read-out: IC50 (biofilm formation)) and 14.9 µM in the test with S. Typhimurium ATCC14028 (Salmonella enterica, Table 14, read-out: IC50 biofilm inhibition). In addition, the Influence on growth result in test [1] is “x”.
As to `OC1(c2ccc(Cl)cc2)C[n+]2cccnc2N1C1CCCCC1.[Br-]` (stereo not shown) [Compound 64], the concentration for half-maximal inhibition (IC50) with S. Typhimurium ATCC14028 (Table 11, listed as R1=cyclohexyl, R3=4-Cl—Ph, R4=H, read-out: IC50 (biofilm formation)) is 43.8 µM and 35.6 µM; with S. Typhimurium ATCC14028 (Table 14, listed as R1=Cyclohexyl, R3=4-ClPh, R4=H, read-out: IC50 biofilm inhibition), 43.8 µM and 35.6 µM; in the test on S. Typhimurium ATCC14028 (setting [4]), 33 µM. Further, in test [1], the Influence on growth entry was “x”.
For the compound `CCCCCCN1c2nccc[n+]2CC1(O)c1ccc([N+](=O)[O-])cc1.[Br-]` (stereo not shown) [Compound 34], the IC50 in the test with S. Typhimurium ATCC14028 (24 hours, Table 15, read-out: (1) IC50 (biofilm inhibition)) is 54.7 µM; in the test on S. Typhimurium ATCC14028 (setting [2]) it was 46.8 µM; with S. Typhimurium ATCC14028 (setting [3]) it was 46.8 µM; in the test on S. Typhimurium ATCC14028 (Table 16, read-out: S. Typhimurium IC50 (biofilm formation)), 54.7 µM.
For `OC1(c2ccc(I)cc2)C[n+]2cccnc2N1Cc1ccccc1.[Br-]` (stereo not shown) [Compound 73], the IC50 with S. Typhimurium ATCC14028 (Table 11, listed as R1=Bn, R3=4-I—Ph, R4=H, read-out: IC50 (biofilm formation)) is 30.7 µM and 26.9 µM; with S. Typhimurium ATCC14028 (Table 14, listed as R1=Bn, R3=4-IPh, R4=H, read-out: IC50 biofilm inhibition) it was 26.9 µM; in the test on S. Typhimurium ATCC14028 (Table 14, listed as R1=Bn, R3=4-Iph, R4=H, read-out: IC50 biofilm inhibition), 30.7 µM; with S. Typhimurium ATCC14028 (Table 19, read-out: IC50 (biofilm formation)), 36.7 µM. For the same compound, the Influence on growth entry in test [1] is “x”.

(Values after patent US20130029981A1, “COMPOUNDS, COMPOSITIONS, AND METHODS FOR CONTROLLING BIOFILMS” (Katholieke Universiteit Leuven, priority 2009, published 2013).)
